According to patent US6906205B2, “Spiro and dispiro 1,2,4-trioxolane antimalarials” (Medicines for Malaria Venture MMV, priority 2002, dated 2005):
Values after ≈ are worked out from the molar mass of the structure shown.

Assays:
[1] = system: P. berghei ANKA strain; assay: treatment: 3x10 mg/kg p.o. divided dose vs 1x30 mg/kg po single dose in infected mice; format: in vivo, Plasmodium berghei; conditions: for Cures: survival to day 30 post-infection = cure, cured/treated mice; for Activity (%) p.o. SSV: percent reduction of parasitemia day 4
Experimental: Moro NMRI male mice (Fü Albino specific pathogen free) weighing 18±2 g were infected intravenously (i.v.) with 2×10^7 P. berghei ANKA strain-infected erythrocytes from donor mice on day 0 of the experiment. From donor mice with circa 30% parasitemia, heparinized blood was taken and diluted in physiological saline to 10^8 parasitized erythrocytes per ml. An aliquot (0.2 ml) of this suspension was injected i.v. into experimental and control groups of mice. […] Throughout the experiments, mice were kept in groups of three or five animals in Makrolon type II cages in an air-conditioned animal room at 22 to 23° C.
They were administered per os (p.o.) in a total volume of 0.01 ml per gram of mouse. The activity of the compound was determined by a variety of methods outlined in subsequent sections. Survival time was also recorded, and survival to day 30 post-infection was considered to be a cure.
The first experiment conducted consisted of administration of a divided 3×10 mg/kg p.o. dose administered on days 1, 2, and 3 post-infection vs. a single 1×30 mg/kg po dose administered on day 1 post-infection. On day 4 post-infection, blood smears of all animals were prepared and stained with Giemsa. […] Compounds were administered orally in the SSV vehicle.

[2] = system: ANKA strain of Plasmodium berghei; assay: single dose ED50/ED90/ED99 determinations in infected mice; format: in vivo; conditions: single dose po in SSV, mice, percent reduction in parasitemia on day three post-infection
Experimental: In the single dose ED50/ED90/ED99 determinations, Moro SPF or NMRI mice (group of three) infected with the ANKA strain of Plasmodium berghei were treated on day one post-infection. […] The SSV consists of 0.5% w/v CMC, 0.5% v/v benzyl alcohol, 0.4% v/v Tween 80, and 0.9% w/v sodium chloride in water. Antimalarial activity was measured by percent reduction in parasitemia on day three post-infection. The ED50/ED90 values were calculated by nonlinear fitting.

[3] = system: ANKA strain of P. berghei; assay: single dose STI in vivo screen in infected mice; parameters: species or system Plasmodium berghei
Outline: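 Groups of 3-5 Moro SPF or NMRI mice infected with the ANKA strain of P. berghei received a single dose of trioxolane on day one post-infection. The compound was given in 3% ethanol and 7% Tween 80 or in SSV (0.5% w/v CMC, 0.5% v/v benzyl alcohol, 0.4% v/v Tween 80, 0.9% w/v sodium chloride in water). Antimalarial activity was scored as percent reduction in parasitemia on day three and as survival time versus untreated controls. Survival to day 30 counted as cure.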

[4] = system: P. berghei ANKA strain; assay: treatment: 3x3 mg/kg and 3x1 mg/kg po divided doses in infected mice; format: in vivo, Plasmodium berghei; conditions: for Activity (%) p.o. SSV: percent reduction of parasitemia day 4
Experimental: (§1) Moro NMRI male mice (Fü Albino specific pathogen free) weighing 18±2 g were infected intravenously (i.v.) with 2×10^7 P. berghei ANKA strain-infected erythrocytes from donor mice on day 0 of the experiment. From donor mice with circa 30% parasitemia, heparinized blood was taken and diluted in physiological saline to 10^8 parasitized erythrocytes per ml. An aliquot (0.2 ml) of this suspension was injected i.v. into experimental and control groups of mice. In untreated control mice, parasitemia rose regularly to 40 to 50% by day 3 post-infection and 70 to 80% by day 4 post-infection. The mice died between days 5 and 7 post-infection. Throughout the experiments, mice were kept in groups of three or five animals in Makrolon type II cages in an air-conditioned animal room at 22 to 23° C. A diet with p-aminobenzoic acid (PABA) of 45 mg (NAFAG FUTTER© food N^o 9009 PAB-45) per kg of body weight, and tap water is available ad libitum.
(§2) OZ compounds were prepared at an appropriate concentration, either as a solution or a suspension containing SSV (0.5% w/v CMC, 0.5% v/v benzyl alcohol, 0.4% v/v Tween 80, and 0.9% w/v sodium chloride in water). They were administered per os (p.o.) in a total volume of 0.01 ml per gram of mouse. The activity of the compound was determined by a variety of methods outlined in subsequent sections. Survival time was also recorded, and survival to day 30 post-infection was considered to be a cure.
The second experiment consists of administration of divided 3×3 mg/kg and 3×1 mg/kg po doses administered on days 1, 2, and 3 post-infection. On day 4 post-infection, blood smears of all animals were prepared and stained with Giemsa. Parasitemia was determined microscopically, and the difference between the mean value of the control group (taken as 100%) and those of the experimental groups was calculated and expressed as percent reduction. Compounds were administered orally in the SSV vehicle.

[5] = system: Schistosoma mansoni 21-day-old schistosomules; assay: effect on 21-day-old schistosomules in mice; format: in vivo; conditions: single 200 mg/kg per os, female mice
Experimental: All groups were killed 4 weeks after treatment and the liver and intestine were removed and separated. The liver and intestine were compressed and alive male and female worms could be seen and counted. The effect of the compounds was evaluated by mean total and female worm burden.

[6] = system: P. falciparum NF54 strain (sensitive to standard antimalarials); assay: semiautomated microdilution assay, [3H]-hypoxanthine incorporation, NF54 strain; format: cell-based, Plasmodium falciparum; conditions: NF54 strain, 72 h incubation
Outline: (§3)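 Intraerythrocytic stages from unsynchronised stock cultures are exposed to test compounds in a semiautomated microdilution format, and fifty percent inhibitory concentrations are then fitted by logit regression.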

[7] = system: P. berghei ANKA strain; assay: prophylactic activity, single 100 mg/kg po dose before infection; format: in vivo, Plasmodium berghei; conditions: for Prophylactic Activity (%): reduction of parasitemia day 3 post-infection
Experimental: as §1, §2
Prophylactic activities of the compounds were compared after administering po single dose of 100 mg/kg to different groups of five animals at various times before infection. All groups including an untreated control group, were then infected at the same time. Parasitemia was determined for each animal on day 3 post-infection, and percent of reduction of the level of parasitemia compared to levels for animals given no drug is determined.

[8] = system: Schistosoma mansoni adult schistosomes (49-day-old); assay: effect on adult schistosomes (49-day-old) in mice; format: in vivo; conditions: single 400 mg/kg per os
Experimental: Mice were infected with 100 Schistosoma mansoni cercariae […]. Each group was treated per os with OZ compounds at single doses of 200, 400, and 600 mg/kg. […] All groups were killed 4 weeks after treatment and the liver and intestine were removed and separated. The liver and intestine were compressed and alive male and female worms could be seen and counted.

[9] = system: P. falciparum K1 strain (Thailand resistant to chloroquine); assay: semiautomated microdilution assay, [3H]-hypoxanthine incorporation, K1 strain; format: cell-based, Plasmodium falciparum; conditions: K1 strain, 72 h incubation
Outline: as §3

[10] = 1 × 30 mg/kg single dose day 1 post-infection
[11] = 3 × 10 mg/kg days 1, 2, 3 post-infection
[12] = 3 × 1 mg/kg days 1, 2, 3 post-infection
[13] = 3 × 3 mg/kg days 1, 2, 3 post-infection
[14] = single 100 mg/kg po 24 h before infection
[15] = single 100 mg/kg po 48 h before infection
[16] = single 100 mg/kg po 72 h before infection

Structure (SMILES)	Cures ([1]; 1 × 30 mg/kg)	ED99 [2]	% reduction of schistosomule growth at day 21 after per os application of 200 mg/kg, TWR (%) [5]	Survival (days) p.o. SSV [1, 10]	Activity (%) p.o. SSV [1, 10]	Survival (days) p.o. SSV [1, 11]	Activity (%) p.o. SSV [1, 11]	Survival (days) p.o. SSV [4, 12]	Activity (%) p.o. SSV [4, 12]	Survival (days) p.o. SSV [4, 13]	Activity (%) p.o. SSV [4, 13]	Prophylactic Activity (%) [7, 14]	Prophylactic Activity (%) [7, 15]	Prophylactic Activity (%) [7, 16]	Prophylactic Activity (%) ([7]; single 100 mg/kg po at 0 h)	also measured
CCN(CC)CCCC(C)Nc1ccnc2cc(Cl)ccc12 (stereo not drawn) [CQ, chloroquine, reference compound]	0/5	5.9 mg/kg	–	–	–	–	–	–	–	–	–	–	–	–	–	Cures ([1]; 3 × 10 mg/kg): 0/5
NC[C@H]1CC[C@]2(CC1)OOC1(O2)C2CC3CC(C2)CC1C3 (stereo partly drawn) [OZ209]	–	3.0 mg/kg	85%	–	–	–	–	–	–	–	–	–	–	–	–	Survival (days) SSVpo ([3]; single po dose in SSV, untreated control 5.6 ± 0.3): 10.0 days; ED90 [2]: 1.4 mg/kg; activity (percent reduction of parasitemia) ([4]; 3×1 mg/kg po on days 1, 2, 3 post-infection, SSV): greater than 99%
NCC(=O)NC[C@H]1CC[C@]2(CC1)OO[C@]1(O2)C2CC3CC(C2)CC1C3 [OZ271]	–	–	88%	–	–	–	–	–	–	–	–	–	–	–	–	Survival (days) 10 mg/kg SSV po ([3]; single 10 mg/kg po in SSV): 8.7 days; IC50 (ng/ml) NF54 [6]: 0.29 ng/mL (≈ 0.827 nM); duration of prophylactic protection ([7]; single 100 mg/kg po before infection): 3 days; % reduction of schistosomule growth at day 21 after per os application of 200 mg/kg, FWR (%) [5]: 86%; % reduction of adult worms growth at day 49 after per os application of 400 mg/kg, TWR (%) [8]: 0%; adult worms at day 49, per os 400 mg/kg, DEAD WORM (%) [8]: 6%; IC50 (ng/ml) K1 [9]: 0.36 ng/mL (≈ 1.03 nM)
CS(=O)(=O)O.NCC1CCC2(CC1)OOC1(O2)C2CC3CC(C2)CC1C3 (stereo not drawn) [compound 209]	0/5	–	–	>30 days	100%	>30 days	100%	9.4 days	99.51%	16.4 days	100%	100%	99.9%	99.92%	100%	–
CS(=O)(=O)O.NCC(=O)NCC1CCC2(CC1)OOC1(O2)C2CC3CC(C2)CC1C3 (stereo not drawn) [compound 271]	0/5	–	–	14 days	99.97%	27.8 days	100%	8.8 days	87%	16.2 days	99.99%	100%	99.98%	99.89%	100%	–
